Patent US20050090433A1 (priority 2002, published 2005)
≈ marks a conversion by molar mass, not a printed value.

Key:
[1] = test system: Miscellaneous Streptococcus and nontypeable strains; assay: Dalbavancin MIC, baseline isolates of SSTI trial; format: cell-based; details: for Dalbavancin MIC, Miscellaneous Streptococcus and nontypeable strains: MITT
Gram-positive pathogen = assay: SSTI trial: microbiologic response, all Gram-positive organisms; format: in vivo, human; details: single dose; EOT and FU, microbiologically-evaluable and MITT populations
Description: This randomized, controlled study evaluated the safety and efficacy of two dose regimens of dalbavancin.
There were 62 patients randomized into the study, all received at least one dose of study medication. Four study populations were evaluated for safety and efficacy and were defined as follows: The intent-to-treat (I) population included all patients who received at least one dose of study drug (all randomized study subjects).
Microbiological outcome, a secondary efficacy variable, was assessed in the subpopulation of patients who had microbiologically documented SSTI (i.e., at least one identified baseline pathogen). A microbiologic response was assessed for each Gram-positive pathogen identified at baseline (i.e., eradication, presumed eradication, persistence, presumed persistence). For patients for whom follow-up cultures were not performed, the microbiologic responses for baseline pathogens were presumed on the basis of the clinical response. Microbiologic response by patient at the EOT and FU visits was graded as success (i.e., all Gram-positive organisms eradicated or presumed eradicated) or failure (i.e., at least one Gram-positive organism persisted or presumed to have persisted, multiple pathogens with partial eradication). At both the EOT and FU visits, colonization and superinfection were assessed. […]

Compound: CN[C@H]1C(=O)N[C@@H]2Cc3ccc(cc3)Oc3cc4cc(c3O[C@@H]3O[C@H](C(=O)O)[C@@H](O)[C@H](O)[C@H]3NC(=O)CCCCCCCCC(C)C)Oc3ccc(cc3Cl)[C@@H](O)[C@@H]3NC(=O)[C@H](NC(=O)[C@@H]4NC(=O)[C@@H](NC2=O)c2cc(cc(O)c2Cl)Oc2cc1ccc2O)c1ccc(O)c(c1)-c1c(O[C@H]2O[C@H](CO)[C@@H](O)[C@H](O)[C@@H]2O)cc(O)cc1[C@@H](C(=O)NCCCN(C)C)NC3=O [Dalbavancin]
- Dalbavancin MIC, Miscellaneous Streptococcus and nontypeable strains ([1]; standard of care group): 4 (0.016) mg/L
- Dalbavancin MIC, Miscellaneous Streptococcus and nontypeable strains ([1]; two-dose group): 2 (0.016) mg/L
- MIC ([1]; Streptococcus, read-out: Dalbavancin MIC, Miscellaneous Streptococcus and nontypeable strains, MITT, single dose group): 0.016 µg/mL (≈ 8.81 nM)
- Microbiologic success rates at both visits (summary) (Gram-positive pathogen): < 40%
